Literature values, collected in PMC12505607 (BMC Medicine, 2025).
Like-named read-outs stand apart in the source and are kept apart here.

Row | Structure (SMILES) | MATE2-K inhibition (MATE2-K) | recommended dose for combination with endocrine therapy (patients; in vivo) [mg BID] | patients with grade 3 fatigue as DLTs (patients; phase 1 dose-escalation study) [patients] | incidence of grades 3–4 neutropenia (patients; phase 1 study) [%] | OCT2 inhibition (OCT2) | MATE1 inhibition (MATE1) | incidence of grades 3–4 neutropenia (patients; in vivo) [%]
1 | CCN1CCN(Cc2ccc(Nc3ncc(F)c(-c4cc(F)c5nc(C)n(C(C)C)c5c4)n3)nc2)CC1 [abemaciclib] | inhibition | 150 | 4 | 32.0 | inhibition | inhibition | 
2 | CC(=O)c1c(C)c2cnc(Nc3ccc(N4CCNCC4)cn3)nc2n(C2CCCC2)c1=O [palbociclib] |  |  |  |  |  |  | 33.0
3 | CN(C)C(=O)c1cc2cnc(Nc3ccc(N4CCNCC4)cn3)nc2n1C1CCCC1 [ribociclib] |  |  |  | 27.0 |  |  | 
